Values quoted from earlier work in US20260284079A1, “LIPID PRODRUGS OF ALLOPR[…] USES THEREOF” (Seaport Therapeutics, Inc., priority 2023, published 2026).

Tests used:
salivary cortisol levels = details: literature; cited from earlier work
[1] = due to extensive first-pass metabolism; cited from earlier work

For `CCNC1=Nc2ccc(Cl)cc2C(C)(c2ccccc2)O1` (centres unmarked) [Etifoxine], the “blunting of increase in salivary cortisol levels following a TSST” value (salivary cortisol levels) is given as “does not blunt an increase in salivary cortisol levels”.

In the case of `CC(=O)[C@H]1CC[C@H]2[C@@H]3CC[C@H]4C[C@H](O)CC[C@]4(C)[C@H]3CC[C@]12C` [allopregnanolone], the oral bioavailability [1] is listed as “less than 5%”.
